Among the data in US20170320870A1 (Medical Research Council Technology, priority 2009, published 2017) are IC50 values, retold here.

The target in this test is T1, LRRK2 wild type (recombinant human, catalytic domain amino acids 970-2527, GST-tagged) (Homo sapiens, UniProt Q5S007).
T1 construct: The wild type used was recombinant human, catalytic domain (amino acids 970-2527) GST-tagged, expressed in insect cells; GST; purchased Invitrogen Corporation PV4873; host or cells: insect cells
Put plainly: LRRK2 wild type protein kinase assay ([γ-33P] ATP, peptide substrate […]), IC50. The test is classed as biochemical. The note with it: LRRK2 (variant not given); read-out: Potency score, LRRK2 IC50. Summed up:
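IC50 derived from duplicate 10-point titrations, with 33P incorporation into a 100 μM peptide counted after P81 filter capture. Roughly 5 nM unactivated kinase reacted with Mg/[γ-33P]ATP for 180 min at room temperature (~21 °C), pH 7.5 Tris buffer containing 10 mM MgCl2, EGTA and DTT; acid-quenched.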

A value given as a limit tells only on which side of the number the result lay.

T1 sequence (Q5S007 970-2527): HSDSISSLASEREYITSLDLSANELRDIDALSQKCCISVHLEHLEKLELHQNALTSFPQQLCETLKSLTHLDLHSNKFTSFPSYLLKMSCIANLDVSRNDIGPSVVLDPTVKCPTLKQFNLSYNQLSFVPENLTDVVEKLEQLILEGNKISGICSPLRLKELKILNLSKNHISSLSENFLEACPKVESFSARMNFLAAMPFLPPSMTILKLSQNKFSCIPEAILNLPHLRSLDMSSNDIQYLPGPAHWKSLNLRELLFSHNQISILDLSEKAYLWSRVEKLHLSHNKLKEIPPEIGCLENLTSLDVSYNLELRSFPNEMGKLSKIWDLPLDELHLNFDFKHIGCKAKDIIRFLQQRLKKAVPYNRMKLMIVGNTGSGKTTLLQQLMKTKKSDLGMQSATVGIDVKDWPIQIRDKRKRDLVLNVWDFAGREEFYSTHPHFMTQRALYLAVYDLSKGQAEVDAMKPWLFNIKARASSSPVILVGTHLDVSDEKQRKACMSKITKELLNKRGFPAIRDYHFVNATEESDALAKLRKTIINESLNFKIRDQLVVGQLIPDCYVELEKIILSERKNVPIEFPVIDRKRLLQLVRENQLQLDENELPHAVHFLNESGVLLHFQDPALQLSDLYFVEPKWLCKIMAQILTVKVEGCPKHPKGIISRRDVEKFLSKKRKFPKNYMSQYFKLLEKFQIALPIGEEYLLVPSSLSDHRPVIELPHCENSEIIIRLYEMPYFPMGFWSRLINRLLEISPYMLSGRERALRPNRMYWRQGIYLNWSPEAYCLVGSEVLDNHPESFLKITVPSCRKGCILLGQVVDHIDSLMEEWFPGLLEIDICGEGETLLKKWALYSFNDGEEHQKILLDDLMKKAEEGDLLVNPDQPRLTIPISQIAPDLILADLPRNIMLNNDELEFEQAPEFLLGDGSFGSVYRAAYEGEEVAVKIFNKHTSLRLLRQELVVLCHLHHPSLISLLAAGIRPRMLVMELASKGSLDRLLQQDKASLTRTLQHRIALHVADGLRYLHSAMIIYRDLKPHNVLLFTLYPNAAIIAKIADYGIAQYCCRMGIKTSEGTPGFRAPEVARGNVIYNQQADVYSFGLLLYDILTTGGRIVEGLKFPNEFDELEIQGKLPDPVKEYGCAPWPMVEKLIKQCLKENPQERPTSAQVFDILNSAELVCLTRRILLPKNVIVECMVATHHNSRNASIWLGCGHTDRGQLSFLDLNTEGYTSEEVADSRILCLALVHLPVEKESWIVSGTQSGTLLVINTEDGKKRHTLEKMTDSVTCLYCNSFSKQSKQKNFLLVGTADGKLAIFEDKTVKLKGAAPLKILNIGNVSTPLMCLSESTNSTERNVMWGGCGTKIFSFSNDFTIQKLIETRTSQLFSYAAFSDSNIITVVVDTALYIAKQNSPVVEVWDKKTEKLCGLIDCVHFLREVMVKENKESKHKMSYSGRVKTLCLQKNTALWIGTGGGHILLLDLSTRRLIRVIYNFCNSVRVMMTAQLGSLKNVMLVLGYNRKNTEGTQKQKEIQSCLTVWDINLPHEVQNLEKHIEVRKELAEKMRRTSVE

Turning to `Cc1n[nH]c2ccnc(OC3CCOCC3)c12` [Example 118, 3-Methyl-4-(tetrahydro-pyran-4-yloxy)-1H-pyrazolo[4,3-c]pyridine], the half-maximal inhibitory concentration (IC50) (usually the concentration at which inhibition is half-maximal) lay in the range of 100 to 1000 nM. Consider `CC1CCCN(C(=O)CCc2n[nH]c3ccnc(NC4CCCCC4)c23)C1` (stereo not shown) [Example 199, 3-(4-Cyclohexylamino-1H-pyrazolo[4,3-c]pyridin-3-yl)-1-(3-methyl-piperidin-1-yl)-propan-1-one], for which the IC50 was under 100 nM. Under `CCN(CC)C(=O)C1CCCN(C(=O)CCc2n[nH]c3ccnc(NC4CCCCC4)c23)C1` (stereo not shown) [Example 193, 1-[3-(4-Cyclohexylamino-1H-pyrazolo[4,3-c]pyridin-3-yl)-propionyl]-piperidine-3-carboxylic acid diethylamide] stands 100 to 1000 nM.

As to `O=C(Nc1cccc(CCc2n[nH]c3ccnc(NC4CCCCC4)c23)c1)c1cccc(Cl)c1` [Example 226, 3-Chloro-N-{3-[2-(4-cyclohexylamino-1H-pyrazolo[4,3-c]pyridin-3-yl)-ethyl]-phenyl}-benzamide], the IC50 is under 100 nM. Under `Cc1n[nH]c2ccnc(NCCC(C)C)c12` [Example 343, (3-Methyl-butyl)-(3-methyl-1H-pyrazolo[4,3-c]pyridin-4-yl)-amine] stands 1000 to 10000 nM; under `OCCCc1n[nH]c2ccnc(NC3CCCCC3)c12` [Example 231, 3-(4-Cyclohexylamino-1H-pyrazolo[4,3-c]pyridin-3-yl)-propan-1-ol], 1000 to 10000 nM.

Turning to `O=C(CCc1n[nH]c2ccnc(O)c12)N1CCC[C@H](c2ccccc2)C1` [Example 257, 3-(4-Hydroxy-1H-pyrazolo[4,3-c]pyridin-3-yl)-1-((R)-3-phenyl-piperidin-1-yl)-propan-1-one], the IC50 fell in the range of 1000 to 10000 nM. With `C[C@@H]1CCCN(C(=O)CCc2n[nH]c3ccnc(NC4CCCCC4)c23)C1` [Example 243, 3-(4-Cyclohexylamino-1H-pyrazolo[4,3-c]pyridin-3-yl)-1-((R)-3-methyl-piperidin-1-yl)-propan-1-one] the figure was under 100 nM; with `Cc1n[nH]c2ccnc(N[C@H](C)C3CCCCC3)c12` [Example 38, ((R)-1-Cyclohexyl-ethyl)-(3-methyl-1H-pyrazolo[4,3-c]pyridin-4-yl)-amine], 1000 to 10000 nM. Under `Cc1n[nH]c2ccnc(Nc3ccc(C(N)=O)cc3)c12` [Example 83, 4-(3-Methyl-1H-pyrazolo[4,3-c]pyridin-4-ylamino)-benzamide] stands 100 to 1000 nM; under `Cc1n[nH]c2ccnc(Nc3ccc(N4CCOCC4)cc3)c12` [Example 85, (3-Methyl-1H-pyrazolo[4,3-c]pyridin-4-yl)-(4-morpholin-4-yl-phenyl)-amine], 100 to 1000 nM.

As for `CC[C@@H](C)Oc1nccc2[nH]nc(C)c12` [Example 122, 4-((R)-sec-Butoxy)-3-methyl-1H-pyrazolo[4,3-c] pyridine], the 50% inhibitory concentration (IC50) is under 100 nM. Under `COC(=O)c1ccc(CCc2n[nH]c3ccnc(NC4CCCCC4)c23)cc1` [Example 232, 4-[2-(4-Cyclohexylamino-1H-pyrazolo[4,3-c]pyridin-3-yl)-ethyl]-benzoic acid methyl ester] stands 100 to 1000 nM; under `Cc1n[nH]c2ccnc(C(=O)NC3CCCCC3)c12` [Example 100, 3-Methyl-1H-pyrazolo[4,3-c]pyridine-4-carboxylic acid cyclohexylamide], 1000 to 10000 nM; under `Cc1ccc(Nc2nccc3[nH]nc(C)c23)cn1` [Example 344, (3-Methyl-1H-pyrazolo[4,3-c]pyridin-4-yl)-(6-methyl-pyridin-3-yl)-amine], 1000 to 10000 nM. Under `Cc1n[nH]c2ccnc(Nc3cccc(NS(C)(=O)=O)c3)c12` [Example 73, N-[3-(3-Methyl-1H-pyrazolo[4,3-c]pyridin-4-ylamino)-phenyl]-methanesulfonamide] stands 100 to 1000 nM; under `COc1ccccc1Nc1nccc2[nH]nc(C)c12` [Example 84, (2-Methoxy-phenyl)-(3-methyl-1H-pyrazolo[4,3-c]pyridin-4-yl)-amine], 100 to 1000 nM; under `Cc1n[nH]c2ccnc(OCC(F)(F)F)c12` [Example 279, 3-Methyl-4-(2,2,2-trifluoro-ethoxy)-1H-pyrazolo [4,3-c]pyridine], 100 to 1000 nM. Under `O=C(COc1ccccc1)Nc1ccc(CCc2n[nH]c3ccnc(NC4CCCCC4)c23)cc1` [Example 273, N-{4-[2-(4-Cyclohexylamino-1H-pyrazolo[4,3-c]pyridin-3-yl)-ethyl]-phenyl}-2-phenoxy-acetamide] stands under 100 nM; under `CC[C@@H](C)Nc1nccc2[nH]nc(C)c12` [Example 37, ((R)-sec-Butyl)-(3-methyl-1H-pyrazolo[4,3-c]pyridin-4-yl)-amine], 1000 to 10000 nM; under `Cc1n[nH]c2ccnc(N3CCc4ccccc4C3)c12` [Example 12, 2-(3-Methyl-1H-pyrazolo[4,3-c]pyridin-4-yl)-1,2,3,4-tetrahydro-isoquinoline], 1000 to 10000 nM.

In the case of `CC(=O)Nc1cccc(NC(=O)c2ccc(CCc3n[nH]c4ccnc(NC5CCCCC5)c34)cc2)c1` [Example 255, N-(3-Acetylamino-phenyl)-4-[2-(4-cyclohexylamino-1H-pyrazolo[4,3-c]pyridin-3-yl)-ethyl]-benzamide], the IC50 was under 100 nM. As for `c1cc(CCc2n[nH]c3ccnc(NC4CCCCC4)c23)ccn1` [Example 218, Cyclohexyl-[3-(2-pyridin-4-yl-ethyl)-1H-pyrazolo[4,3-c]pyridin-4-yl]-amine], the half-inhibitory concentration (IC50) lay within 100 to 1000 nM. In the case of `COCCN1CCN(C(=O)CCc2n[nH]c3ccnc(NC4CCCCC4)c23)CC1` [Example 178, 3-(4-Cyclohexylamino-1H-pyrazolo[4,3-c]pyridin-3-yl)-1-[4-(2-methoxy-ethyl)-piperazin-1-yl]-propan-1-one], the IC50 fell in the range of 100 to 1000 nM. Consider `Cc1n[nH]c2ccnc(O[C@@H]3CCC[C@@H]3C)c12` (racemic) [Example 293, Cis-3-Methyl-4-(2-methyl-cyclopentyl-oxy)-1H-pyrazolo [4,3-c]pyridine], for which the IC50 lay in the range of 100 to 1000 nM. With `O=C(CCc1n[nH]c2ccnc(NC3CCCCC3)c12)N1CC(c2ccccc2)C1` [Example 242, 3-(4-Cyclohexylamino-1H-pyrazolo[4,3-c]pyridin-3-yl)-1-(3-phenyl-azetidin-1-yl)-propan-1-one], the IC50 was 100 to 1000 nM.

As to `Cc1cc(C)c(Nc2nccc3[nH]nc(C)c23)cn1` [Example 350, (4,6-Dimethyl-pyridin-3-yl)-(3-methyl-1H-pyrazolo[4,3-c]pyridin-4-yl)-amine], the IC50 lay in the range of 1000 to 10000 nM. Under `Cc1n[nH]c2ccnc(Nc3cccc(C(F)(F)F)c3)c12` [Example 66, (3-Methyl-1H-pyrazolo[4,3-c]pyridin-4-yl)-(3-trifluoromethyl-phenyl)-amine] stands 100 to 1000 nM. With `CN(Cc1ccccc1)C(=O)CCc1n[nH]c2ccnc(NC3CCCCC3)c12` [Example 183, N-Benzyl-3-(4-cyclohexylamino-1H-pyrazolo[4,3-c]pyridin-3-yl)-N-methyl-propionamide], the IC50 was in the range of 100 to 1000 nM. With `Cc1n[nH]c2ccnc(NC3CCOCC3)c12` [Example 4, (3-Methyl-1H-pyrazolo[4,3-c]pyridin-4-yl)-(tetrahydro-pyran-4-yl)-amine] the figure was 100 to 1000 nM.

With `Cc1n[nH]c2ccnc(NC3CCCCC3)c12` [Example 3, Cyclohexyl-(3-methyl-1H-pyrazolo[4,3-c]pyridin-4-yl)-amine], the IC50 was 100 to 1000 nM. As for `CCC[C@@H](C)Oc1nccc2[nH]nc(C)c12` [Example 286, 3-Methyl-4-((R)-1-methyl-butoxy)-1H-pyrazolo[4,3-c]pyridine], the IC50 lay within 100 to 1000 nM. For `Cc1n[nH]c2ccnc(N[C@H]3CC[C@H](O)CC3)c12` [Example 26, Trans-4-(3-Methyl-1H-pyrazolo[4,3-c]pyridin-4-ylamino)-cyclohexanol], the half-inhibitory concentration (IC50) fell in the range of 100 to 1000 nM.

In the case of `O=C(CCc1n[nH]c2ccnc(NC3CCCCC3)c12)N1CCC(c2ccccc2)C1` (stereo not shown) [Example 206, 3-(4-Cyclohexylamino-1H-pyrazolo[4,3-c]pyridin-3-yl)-1-(3-phenyl-pyrrolidin-1-yl)-propan-1-one], the IC50 is under 100 nM. On to `Cc1n[nH]c2ccnc(O[C@H](C)Cc3ccccc3)c12` [Example 299, 3-Methyl-4-((R)-1-methyl-2-phenyl-ethoxy)-1H-pyrazolo[4,3-c]pyridine], for which the IC50 is under 100 nM. With `CN1CCN(C(=O)CCc2n[nH]c3ccnc(NC4CCCCC4)c23)CC1` [Example 177, 3-(4-Cyclohexylamino-1H-pyrazolo[4,3-c]pyridin-3-yl)-1-(4-methyl-piperazin-1-yl)-propan-1-one] the figure was 100 to 1000 nM.

With `Cc1n[nH]c2ccnc(Nc3ccc4c(cnn4C)c3)c12` [Example 99, (1-Methyl-1H-indazol-5-yl)-(3-methyl-1H-pyrazolo[4,3-c]pyridin-4-yl)-amine], the half-maximal inhibitory concentration (IC50) fell in the range of 100 to 1000 nM. Under `COc1ccc(C(=O)N2CCC(Nc3nccc4[nH]nc(C)c34)CC2)cc1` [Example 105, (4-Methoxy-phenyl)-[4-(3-methyl-1H-pyrazolo[4,3-c]pyridin-4-ylamino)-piperidin-1-yl]-methanone] stands 1000 to 10000 nM; under `O=C(c1ccc(CCc2n[nH]c3ccnc(NC4CCCCC4)c23)cc1)N1CC[C@H](c2cccnc2)C1` [Example 248, {4-[2-(4-Cyclohexylamino-1H-pyrazolo[4,3-c]pyridin-3-yl)-ethyl]-phenyl}-((R)-3-pyridin-3-yl-pyrrolidin-1-yl)-methanone], under 100 nM; under `Cc1n[nH]c2ccnc(NC3CCN(C(=O)CCN4CCOCC4)CC3)c12` [Example 103, 1-[4-(3-Methyl-1H-pyrazolo[4,3-c]pyridin-4-ylamino)-piperidin-1-yl]-3-morpholin-4-yl-propan-1-one], 1000 to 10000 nM.
